Test results published in PubChem BioAssay (NCI).
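Method: 48-hour compound exposure of cells in 96-well plates, five concentrations, linear interpolation of endpoints. At the GI50, growth is halved. TGI denotes the concentration required for complete inhibition of growth.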

Columns and labels:
Test in all cases: growth of human tumour cells (NCI), 48 h
[1] = tested on: CAKI-1 renal
[2] = tested on: HCC-2998 colon
[3] = tested on: SK-OV-3 ovarian
[4] = tested on: SNB-75 CNS
[5] = tested on: SK-MEL-28 melanoma
[6] = tested on: K-562 leukemia
[7] = tested on: OVCAR-3 ovarian
[8] = tested on: SK-MEL-2 melanoma
[9] = tested on: U251 CNS

For O=C1CC/C(=C\COc2ccc3ccc(=O)oc3c2)O1, the GI50 [1] was 1.97 µM, the TGI [1] was 20.6 µM and the GI50 [2] was 17 µM. For the same molecule, the TGI [2] was 35.6 µM, the GI50 [3] was 27.8 µM and the TGI [3] was over 100 µM. It also gave a GI50 [4] of 12.7 µM, a TGI [4] of 30.2 µM and a GI50 [5] of 15.3 µM. The TGI [5] was 32.7 µM, the GI50 [6] was 9.89 µM and the TGI [6] was over 100 µM. It also gave a GI50 [7] of 4.44 µM, a TGI [7] of 22 µM and a GI50 [8] of 10.9 µM. The TGI [8] was 36.8 µM, the GI50 [9] was 10.3 µM and the TGI [9] was 22.8 µM.

Molecule COc1ccccc1NC(=O)CC(=O)NNCC(=O)Nc1nnc(-c2ccccc2)o1 has a TGI [1] of over 100 µM, a TGI [2] of over 100 µM and a TGI [3] of over 100 µM. For the same molecule, the TGI [4] was over 100 µM, the TGI [5] was over 100 µM and the TGI [6] was over 100 µM. It also gave a TGI [7] of over 100 µM, a TGI [8] of over 100 µM and a TGI [9] of over 100 µM.

O=C1C=CC(=O)c2c1ncc1c2nc2sccn21 gave a GI50 [1] of 19.5 µM, a TGI [1] of 42.5 µM and a GI50 [2] of 78.9 µM. The TGI [2] was over 100 µM, the GI50 [3] was 98.3 µM and the TGI [3] was over 100 µM. It also gave a GI50 [5] of 22.9 µM, a TGI [5] of 47.2 µM and a GI50 [6] of 30.1 µM. For the same molecule, the TGI [6] was over 100 µM, the GI50 [7] was 20.3 µM and the TGI [7] was 63.4 µM. The GI50 [8] was 42.8 µM, the TGI [8] was over 100 µM and the GI50 [9] was 18.3 µM. The TGI [9] was 43.9 µM.

Molecule CC[C@@]1(O)C(=O)OCc2c1cc1n(c2=O)Cc2cc3c(NC(=O)CN)cccc3nc2-1 has a TGI [1] of 2.14 µM, a TGI [2] of 9.05 µM and a TGI [3] of 25.3 µM. It also gave a TGI [4] of 0.693 µM, a TGI [5] of over 100 µM and a TGI [6] of over 100 µM. For the same molecule, the TGI [7] was 9.34 µM, the TGI [8] was 14.8 µM and the TGI [9] was 5.16 µM.

In the case of COc1ccc(C2=C(c3cc(OC)c(OC)c(OC)c3)C(=O)OC2)cc1OC, the GI50 [1] is reported as under 0.01 µM, the TGI [1] is reported as 1.24 µM and the GI50 [2] is reported as 0.025 µM. It also gave a TGI [2] of 0.299 µM, a GI50 [3] of 8.27 µM and a TGI [3] of over 100 µM. It also gave a GI50 [4] of over 100 µM, a TGI [4] of over 100 µM and a GI50 [5] of 47.6 µM. The TGI [5] was over 100 µM, the GI50 [6] was under 0.0153 µM and the TGI [6] was over 100 µM. For the same molecule, the GI50 [7] was under 0.0112 µM, the TGI [7] was under 0.0206 µM and the GI50 [8] was 0.0313 µM. For the same molecule, the TGI [8] was over 100 µM, the GI50 [9] was 0.187 µM and the TGI [9] was over 100 µM.

In the case of NC(N)=N/N=C/c1c(-c2ccc(Cl)c([N+](=O)[O-])c2)nc2ccccn12, the GI50 [1] is reported as 11.8 µM, the TGI [1] is reported as 42.4 µM and the GI50 [2] is reported as 1.5 µM. For the same molecule, the TGI [2] was 3.1 µM, the GI50 [7] was 1.59 µM and the TGI [7] was 3.11 µM.

For Cc1ccc2[nH]c(C(=O)NN3C(=O)C(C)SC34CCCCC4C)c(-c3ccccc3)c2c1 (stereo not given), the GI50 [1] was 17 µM, the TGI [1] was 40.7 µM and the GI50 [2] was 19.5 µM. For the same molecule, the TGI [2] was 35.5 µM, the GI50 [3] was 37.9 µM and the TGI [3] was over 100 µM. The GI50 [4] was 21.2 µM, the TGI [4] was 41.7 µM and the GI50 [5] was 19.4 µM. It also gave a TGI [5] of 38.8 µM, a GI50 [6] of 18.5 µM and a TGI [6] of 60 µM. It also gave a GI50 [7] of 14.4 µM, a TGI [7] of 31.7 µM and a GI50 [8] of 12 µM. The TGI [8] was 26.5 µM, the GI50 [9] was 16.1 µM and the TGI [9] was 32.8 µM.

For C=C1C(=O)O[C@H]2C[C@@H]1CCC1(C)OC1CC/C(C)=C/CC[C@H]2C (stereo not given in full), the GI50 [2] was 18.9 µM, the TGI [2] was 33.1 µM and the GI50 [3] was 19.3 µM. For the same molecule, the TGI [3] was 37.1 µM, the GI50 [6] was 21.6 µM and the TGI [6] was 41.2 µM. The GI50 [7] was 19.1 µM, the TGI [7] was 35.1 µM and the GI50 [8] was 48.5 µM. The TGI [8] was over 100 µM, the GI50 [9] was 17.7 µM and the TGI [9] was 31.5 µM.

With COc1cc(OC)cc(-c2cncn2-c2ccc(-c3nc4cc(OC)cc(OC)c4s3)cc2)c1 the GI50 [1] was 2.13 µM, the TGI [1] was over 100 µM and the GI50 [2] was over 100 µM. For the same molecule, the TGI [2] was over 100 µM, the GI50 [3] was 4.69 µM and the TGI [3] was over 100 µM. It also gave a GI50 [4] of 3.28 µM, a TGI [4] of 17.9 µM and a GI50 [5] of over 100 µM. For the same molecule, the TGI [5] was over 100 µM, the GI50 [6] was 3.22 µM and the TGI [6] was over 100 µM. The GI50 [7] was 2.87 µM, the TGI [7] was over 100 µM and the GI50 [8] was 9.69 µM. For the same molecule, the TGI [8] was over 100 µM, the GI50 [9] was 4.76 µM and the TGI [9] was over 100 µM.

With NC(=O)NCCSC1CCCCC1O (stereo not given) the TGI [1] was over 100 µM, the TGI [3] was over 100 µM and the TGI [4] was over 100 µM. It also gave a TGI [5] of over 100 µM, a TGI [6] of over 100 µM and a TGI [7] of over 100 µM. The TGI [8] was over 100 µM and the TGI [9] was over 100 µM.

CN1CCC(n2[nH]c(-c3ccccc3)c(Cc3ccccc3)c2=O)CC1 gave a TGI [1] of over 100 µM, a TGI [2] of over 100 µM and a TGI [3] of over 100 µM. For the same molecule, the TGI [4] was over 100 µM, the TGI [5] was over 100 µM and the TGI [6] was over 100 µM. For the same molecule, the TGI [7] was over 100 µM, the TGI [8] was over 100 µM and the TGI [9] was over 100 µM.

c1cncc(CNc2ncn[nH]2)c1 was tested, and the TGI [1] was over 100 µM, the TGI [3] was over 100 µM and the TGI [4] was over 100 µM. The TGI [5] was over 100 µM, the TGI [6] was over 100 µM and the TGI [7] was over 100 µM. The TGI [8] was over 100 µM and the TGI [9] was over 100 µM.

For COc1ccc(/C=C\c2cc(OC)c(OC)c(OC)c2)cc1OCC(=O)Nc1nc2ccc(OC(F)(F)F)cc2s1, the GI50 [1] was 4.6 µM, the TGI [1] was over 100 µM and the GI50 [2] was 17.1 µM. The TGI [2] was over 100 µM, the GI50 [3] was 8.42 µM and the TGI [3] was over 100 µM. For the same molecule, the GI50 [4] was 1.56 µM, the TGI [4] was 7.68 µM and the GI50 [5] was 4.57 µM. It also gave a TGI [5] of over 100 µM, a GI50 [6] of 3.43 µM and a TGI [6] of over 100 µM. It also gave a GI50 [7] of 3.37 µM, a TGI [7] of 11.3 µM and a GI50 [8] of 3.29 µM. It also gave a TGI [8] of over 100 µM, a GI50 [9] of 3.37 µM and a TGI [9] of over 100 µM.

For CCOC(=O)[C@H]1Nc2ccc(Cl)cc2[C@H]2c3ccccc3O[C@H]21, the TGI [1] was over 100 µM, the TGI [2] was over 100 µM and the TGI [4] was over 100 µM. For the same molecule, the TGI [5] was over 100 µM, the TGI [6] was over 100 µM and the TGI [7] was over 100 µM. It also gave a TGI [8] of over 100 µM and a TGI [9] of over 100 µM.
